Results on one substance are retold here after patent publication US8022104B2 (priority 2005, dated 2011).

Where “and” joins values, the source holds several entries; their conditions need not be identical. Identical values can stand only once. Like-named read-outs stand apart in the source and are kept apart here.

The nature of series [1]: Pharmacokinetic analysis in Alzheimer's disease patients. In kind it is in vivo, human. The procedure: Pharmacokinetic analysis was performed on Week 4 (maintenance analysis) and on Week 9 (termination analysis). At maintenance analysis (M), samples were collected pre-dose and at 0.25, 0.5, 1, 2, and 3 hours post-dose. At termination analysis (T), samples were collected pre-dose and at 0.25, 0.5, 1, 2, 3, 4, 6, and […].
The concentration measurements are expressed in nmol/ml and the t1/2 is expressed in terms of hours.

Series [2] deals with 3,4-dihydroxyphenylglycol (DHPG) in plasma. The series is described as follows: Decrease of DHPG plasma concentration in patients, HPLC with electrochemical detector. It counts as in vivo, human. The procedure: Decrease of 3,4-dihydroxyphenylglycol (“DHPG”) in plasma is indicative of monoamine oxidase inhibition, especially in the brain. DHPG plasma concentrations were measured in 6 of the aforementioned patients at baseline and at termination analysis, using HPLC equipped with an electrochemical detector.
The decrease in DHPG concentration in the six patients was determined. The average decrease in DHPG concentration was determined to be 57% with a standard deviation of 29.

The test system of another series is Cholinesterase. The series is described as follows: Cholinesterase inhibition at pre-dose in patients. It counts as in vivo, human. The settings on record: pre-dose administration, at maintenance and at termination analyses. An excerpt: Cholinesterase inhibition at pre-dose administration both at maintenance and at termination analyses was also evident.
A short description of series [3]: Wet granulation experiments: compatibility with water and ethanol. In kind it is physicochemical. The protocol: The manufacturing process was changed from the dry granulation process to a wet-granulation process as a result of the flow problem with the active ingredient. Water and ethanol are the two most common agents used in wet granulation. Granulation experiments were first performed with water. […] Therefore, granulation experiments based on the CC formulation were performed with isopropanol.

A short description of series [4]: Bulk and tapped density of ladostigil tartrate crystals. In kind it is physicochemical. The conditions noted are these: crystals from the alternative isopropanol process. From the text: This alternative process, which can be performed without the seeding step, is better suited for use in a pilot scale and a production scale than a method that follows PCT Application Publication No. WO98/27055.

By Cmax is commonly meant the maximum level reached in the sampled fluid or tissue. As for “R(+)-6-(N-methyl, N-ethyl-carbamoyloxy)-N′-propargyl-1-aminoindan [Ladostigil Tartrate]”, in series [1] (half life at termination analysis Week 9), the t1/2 turned out to be 1.08 h. Further, in series [1] (individual patients 1-8, maintenance analysis Week 4, 100 mg twice daily, tablets of Table 9), the “AUC ladostigil (M)” value is 314 ng·h/mL and 589 ng·h/mL and 1005 ng·h/mL and 927 ng·h/mL and 436 ng·h/mL and 551 ng·h/mL and 52 ng·h/mL and 500 ng·h/mL. The “AUC ladostigil (T)” value in series [1] (individual patients 1-8, termination analysis Week 9, 100 mg twice daily, tablets of Table 9) was 246 ng·h/mL and 2305 ng·h/mL and 1449 ng·h/mL and 482 ng·h/mL and 398 ng·h/mL and 901 ng·h/mL and 118 ng·h/mL and 350 ng·h/mL. Moreover, the maximum concentration (Cmax) in series [1] (individual patients 1-8, termination analysis Week 9, 100 mg twice daily, read-out: Cmax ladostigil (T)) is 700 nM and 3800 nM and 3900 nM and 1600 nM and 1000 nM and 2500 nM and 400 nM and 1300 nM; in series [1] (mean after dosing, maintenance analysis Week 4, read-out: Cmax), 2020 nM; in series [1] (mean after dosing, termination analysis Week 9, read-out: Cmax (T)), 1880 nM. Besides, the “Cmin (M)” value in series [1] (mean concentration at pre-dose (12 hours after previous dose), maintenance analysis Week 4) stood at 1.64e-08 M. The “Cmin (T)” value in series [1] (mean concentration at pre-dose (12 hours after previous dose), termination analysis Week 9) is 10.9 nM. In addition, in series [2] (individual patients, termination analysis Week 9 versus baseline), the “DHPG (T) (%)” value was −63% and −86% and >−79% and −73% and −30% and −13%. Also, the “average decrease in DHPG concentration” value in series [2] (six patients, termination analysis, standard deviation of 29) came to 57%. In addition, the “Cholinesterase inhibition” value in the series on Cholinesterase is “evident”. The Compatibility with ethanol entry in series [3] (wet granulation agent) is recorded as “incompatible with ethanol”. In addition, in series [3] (wet granulation with water), the “Stability in the presence of water” value is “unstable in the presence of water”. The same substance came in with a bulk density in series [4] of 0.22 to 0.29 g/mL. The tapped density in series [4] was 0.38 to 0.54 g/mL.
